Data taken from PubChem BioAssay AID200 (DTP/NCI, 2004).
Several values for one entry are separate records, joined by “and”; a condition that tells them apart may be missing. Identical values can stand only once. Inconclusive results and toxic doses are left out.

Test system: B6C3F1 mice, B16 melanoma ip, median survival T/C
Test: NCI In Vivo Anticancer Drug Screen. Data for tumor model B16 Melanoma (intraperitoneal) in B6C3F1 mice
Conditions: endpoint: median survival time, higher = longer survival
Procedure: The antitumor activity of compounds was measured in mice bearing transplantable tumors. Survival or tumor size were measured and the results are expressed as the measurement made in the treated group (T) divided by the measurement made in the vehicle treated control group (C). The tumor model used in this assay is B16 Melanoma (intraperitoneal) in B6C3F1 mice

[1] = dose: 25.0 mg/kg/injection, schedule: Q01DX009 (ip), vehicle: Klucel (hydroxypropylcellulose) (HPC)
[2] = dose: 50.0 mg/kg/injection, schedule: Q01DX009 (ip), vehicle: Klucel (hydroxypropylcellulose) (HPC)
[3] = dose: 100.0 mg/kg/injection, schedule: Q01DX009 (ip), vehicle: Klucel (hydroxypropylcellulose) (HPC)
[4] = dose: 25.0 mg/kg/injection, schedule: Q01DX009 (ip), vehicle: saline with Tween-80
[5] = dose: 50.0 mg/kg/injection, schedule: Q01DX009 (ip), vehicle: saline with Tween-80
[6] = dose: 100.0 mg/kg/injection, schedule: Q01DX009 (ip), vehicle: saline with Tween-80
[7] = dose: 200.0 mg/kg/injection, schedule: Q01DX009 (ip), vehicle: saline with Tween-80
[8] = dose: 400.0 mg/kg/injection, schedule: Q01DX009 (ip), vehicle: saline with Tween-80
[9] = dose: 0.25 mg/kg/injection, schedule: Q01DX009 (ip), vehicle: saline with Tween-80
[10] = dose: 0.5 mg/kg/injection, schedule: Q01DX009 (ip), vehicle: saline with Tween-80
[11] = dose: 1.0 mg/kg/injection, schedule: Q01DX009 (ip), vehicle: saline with Tween-80
[12] = dose: 2.0 mg/kg/injection, schedule: Q01DX009 (ip), vehicle: saline with Tween-80
[13] = dose: 25.0 mg/kg/injection, schedule: Q01DX009 (ip), vehicle: suspension in saline
[14] = dose: 50.0 mg/kg/injection, schedule: Q01DX009 (ip), vehicle: suspension in saline

Nc1nc(Br)nc2c1ncn2C1CC(O)C(CO)O1 (stereo unspecified)
T/C (dose: 7.5 mg/kg/injection, schedule: Q03HX009 (ip), vehicle: saline): 96 % of control
T/C (dose: 15.0 mg/kg/injection, schedule: Q03HX009 (ip), vehicle: saline): 96 % of control
T/C (dose: 30.0 mg/kg/injection, schedule: Q03HX009 (ip), vehicle: saline): 93 % of control
T/C (dose: 60.0 mg/kg/injection, schedule: Q03HX009 (ip), vehicle: saline): 101 % of control

CCOC(=O)CNC(=O)Sc1ccc(C(C)(C)C)cc1
T/C (dose: 12.5 mg/kg/injection, schedule: Q01DX009 (ip), vehicle: Klucel (hydroxypropylcellulose) (HPC)): 100 % of control
T/C [1]: 100 % of control
T/C [2]: 102 % of control
T/C [3]: 105 % of control
T/C (dose: 200.0 mg/kg/injection, schedule: Q01DX009 (ip), vehicle: Klucel (hydroxypropylcellulose) (HPC)): 115 % of control

CC(Cc1ccc(O)cc1)NCC(O)c1ccc(O)c(O)c1 (stereo unspecified)
T/C (dose: 12.5 mg/kg/injection, schedule: Q01DX009 (ip), vehicle: saline with Tween-80): 97 % of control
T/C [4]: 92 % of control
T/C [5]: 100 % of control
T/C [6]: 101 % of control
T/C [7]: 101 % of control
T/C [8]: 111 % of control

CC[PH+](CC)CC[S-].CC[PH+](CC)CC[S-].[Au+].[Au+]
T/C (dose: 5.0 mg/kg/injection, schedule: Q01DX009 (ip), vehicle: Klucel (hydroxypropylcellulose) (HPC)): 94 % of control
T/C (dose: 10.0 mg/kg/injection, schedule: Q01DX009 (ip), vehicle: Klucel (hydroxypropylcellulose) (HPC)): 97 % of control
T/C (dose: 20.0 mg/kg/injection, schedule: Q01DX009 (ip), vehicle: Klucel (hydroxypropylcellulose) (HPC)): 97 % of control
T/C (dose: 40.0 mg/kg/injection, schedule: Q01DX009 (ip), vehicle: Klucel (hydroxypropylcellulose) (HPC)): 95 % of control

CC(C)CCC(=O)c1ccoc1
T/C (dose: 0.12 mg/kg/injection, schedule: Q03HX027 (ip), vehicle: saline with Tween-80): 100 % of control
T/C [9]: 100 % of control
T/C (dose: 0.25 mg/kg/injection, schedule: Q03HX027 (ip), vehicle: saline with Tween-80): 98 % of control
T/C [10]: 100 % of control
T/C (dose: 0.5 mg/kg/injection, schedule: Q03HX027 (ip), vehicle: saline with Tween-80): 107 % of control
T/C [11]: 102 % of control
T/C (dose: 1.0 mg/kg/injection, schedule: Q03HX027 (ip), vehicle: saline with Tween-80): 88 % of control
T/C [12]: 102 % of control
T/C (dose: 2.0 mg/kg/injection, schedule: Q03HX027 (ip), vehicle: saline with Tween-80): 107 % of control

CC(C)(C)SCC(NC(=O)OCC1c2ccccc2-c2ccccc21)C(=O)O (stereo unspecified)
T/C [1]: 91 % of control
T/C [2]: 97 % of control
T/C [3]: 91 % of control and 92 % of control

CCOc1ncc([N+](=O)[O-])c(OCC)n1
T/C [5]: 89 % of control and 106 % of control
T/C [6]: 103 % of control
T/C [7]: 91 % of control and 96 % of control

COC1=C2C[C@@H](C)C[C@@H](OC)[C@@H](O)[C@H](C)/C=C(\C)[C@@H](OC(N)=O)[C@H](OC)/C=C\C=C(/C)C(=O)NC(=CC1=O)C2=O
T/C (dose: 0.12 mg/kg/injection, schedule: Q01DX009 (ip), vehicle: saline with Tween-80): 103 % of control and 106 % of control
T/C (dose: 0.13 mg/kg/injection, schedule: Q01DX009 (ip), vehicle: saline with Tween-80): 105 % of control
T/C [9]: 108 % of control and 118 % of control
T/C [10]: 122 % of control and 102 % of control and 105 % of control
T/C [11]: 109 % of control and 102 % of control
T/C [12]: 123 % of control and 106 % of control

O=C1C(=O)c2cccnc2-c2ncccc21
T/C (dose: 0.75 mg/kg/injection, schedule: Q01DX009 (ip), vehicle: Klucel (hydroxypropylcellulose) (HPC)): 104 % of control
T/C (dose: 0.78 mg/kg/injection, schedule: Q01DX009 (ip), vehicle: Klucel (hydroxypropylcellulose) (HPC)): 102 % of control
T/C (dose: 1.5 mg/kg/injection, schedule: Q01DX009 (ip), vehicle: Klucel (hydroxypropylcellulose) (HPC)): 115 % of control and 107 % of control
T/C (dose: 1.56 mg/kg/injection, schedule: Q01DX009 (ip), vehicle: Klucel (hydroxypropylcellulose) (HPC)): 115 % of control and 98 % of control
T/C (dose: 3.0 mg/kg/injection, schedule: Q01DX009 (ip), vehicle: Klucel (hydroxypropylcellulose) (HPC)): 119 % of control and 92 % of control and 98 % of control
T/C (dose: 3.12 mg/kg/injection, schedule: Q01DX009 (ip), vehicle: Klucel (hydroxypropylcellulose) (HPC)): 114 % of control and 100 % of control
T/C (dose: 6.0 mg/kg/injection, schedule: Q01DX009 (ip), vehicle: Klucel (hydroxypropylcellulose) (HPC)): 113 % of control and 87 % of control and 108 % of control
T/C (dose: 6.25 mg/kg/injection, schedule: Q01DX009 (ip), vehicle: Klucel (hydroxypropylcellulose) (HPC)): 109 % of control

Nc1ncc(S(=O)(=O)c2ccc([N+](=O)[O-])cc2)c(N)n1
T/C (dose: 75.0 mg/kg/injection, schedule: Q01DX009 (ip), vehicle: saline): 100 % of control
T/C (dose: 150.0 mg/kg/injection, schedule: Q01DX009 (ip), vehicle: saline): 102 % of control
T/C (dose: 300.0 mg/kg/injection, schedule: Q01DX009 (ip), vehicle: saline): 87 % of control

CCC(=O)OCC1OC(n2cnc3c(=S)nc(N)[nH]c32)C(OC(=O)CC)C1OC(=O)CC (stereo unspecified)
T/C [1]: 86 % of control

CCN(CC)CCC(=O)c1ccccc1
T/C (dose: 3.12 mg/kg/injection, schedule: Q01DX009 (ip), vehicle: suspension in saline): 97 % of control
T/C (dose: 6.25 mg/kg/injection, schedule: Q01DX009 (ip), vehicle: suspension in saline): 98 % of control
T/C (dose: 12.5 mg/kg/injection, schedule: Q01DX009 (ip), vehicle: suspension in saline): 104 % of control
T/C [13]: 107 % of control
T/C [14]: 124 % of control

C[n+]1cccc(NC(=O)c2ccc(NC(=O)C34CCC(C(=O)Nc5ccc(C(=O)Nc6ccc[n+](C)c6)cc5)(CC3)CC4)cc2)c1
T/C (dose: 2.5 mg/kg/injection, schedule: Q01DX009 (ip), vehicle: saline with Tween-80): 114 % of control
T/C (dose: 5.0 mg/kg/injection, schedule: Q01DX009 (ip), vehicle: saline with Tween-80): 111 % of control and 117 % of control and 118 % of control
T/C (dose: 10.0 mg/kg/injection, schedule: Q01DX009 (ip), vehicle: saline with Tween-80): 119 % of control
T/C (dose: 20.0 mg/kg/injection, schedule: Q01DX009 (ip), vehicle: saline with Tween-80): 121 % of control and 99 % of control

CCOC(=O)Nc1cc2c(c(N)n1)N=C(c1ccccc1)CO2
T/C [4]: 112 % of control and 118 % of control
T/C [5]: 111 % of control and 118 % of control
T/C [6]: 115 % of control and 124 % of control
T/C (dose: 103.68 mg/kg/injection, schedule: Q01DX009 (ip), vehicle: saline with Tween-80): 106 % of control
T/C [8]: 150 % of control and 198 % of control
T/C (dose: 480.0 mg/kg/injection, schedule: Q01DX009 (ip), vehicle: saline with Tween-80): 165 % of control
T/C (dose: 800.0 mg/kg/injection, schedule: Q01DX009 (ip), vehicle: saline with Tween-80): 172 % of control

[Cl][Sn]([c]1ccccc1)[c]1ccccc1
T/C (dose: 3.12 mg/kg/injection, schedule: Q01DX009 (ip), vehicle: saline): 116 % of control
T/C (dose: 3.13 mg/kg/injection, schedule: Q01DX009 (ip), vehicle: saline): 93 % of control
T/C (dose: 6.25 mg/kg/injection, schedule: Q01DX009 (ip), vehicle: saline): 122 % of control and 106 % of control
T/C (dose: 12.5 mg/kg/injection, schedule: Q01DX009 (ip), vehicle: saline): 107 % of control
T/C (dose: 25.0 mg/kg/injection, schedule: Q01DX009 (ip), vehicle: saline): 118 % of control

Cc1cc2nc3c(=O)[nH]c(=O)nc-3n(CC(O)C(O)C(O)C(O)CO)c2cc1C (stereo unspecified)
T/C [13]: 104 % of control
T/C [14]: 111 % of control
T/C (dose: 100.0 mg/kg/injection, schedule: Q01DX009 (ip), vehicle: suspension in saline): 102 % of control
T/C (dose: 200.0 mg/kg/injection, schedule: Q01DX009 (ip), vehicle: suspension in saline): 93 % of control

CCCCC/C(=C\c1ccccc1)C1OCC(COCC)O1 (stereo unspecified)
T/C (dose: 6.25 mg/kg/injection, schedule: Q01DX009 (ip), vehicle: saline + Tween-80 + alcohol): 87 % of control
T/C (dose: 12.5 mg/kg/injection, schedule: Q01DX009 (ip), vehicle: saline + Tween-80 + alcohol): 91 % of control
T/C (dose: 25.0 mg/kg/injection, schedule: Q01DX009 (ip), vehicle: saline + Tween-80 + alcohol): 94 % of control
T/C (dose: 50.0 mg/kg/injection, schedule: Q01DX009 (ip), vehicle: saline + Tween-80 + alcohol): 93 % of control
